{"source": "patent US20170202932A1", "about": "“METHODS FOR INHIBITING NEURON APOPTOSIS AND NECROSIS” (NEWSOUTH INNOVATIONS PTY LIMITED, priority 2012, published 2017)", "key": {"[1]": {"target": "T1, recombinant mouse TRPC3b channels (Mus musculus, UniProt Q9QZC1, R524G)", "T1 construct": "Full length mouse TRPC3 transcripts were obtained by PCR; expressed in transfected cells; host or cells: HEK293 cells stably expressing TRPC3b, additionally transfected with mGluR1-eYFP cDNA", "T1 sequence (Q9QZC1 75-910 R524G)": "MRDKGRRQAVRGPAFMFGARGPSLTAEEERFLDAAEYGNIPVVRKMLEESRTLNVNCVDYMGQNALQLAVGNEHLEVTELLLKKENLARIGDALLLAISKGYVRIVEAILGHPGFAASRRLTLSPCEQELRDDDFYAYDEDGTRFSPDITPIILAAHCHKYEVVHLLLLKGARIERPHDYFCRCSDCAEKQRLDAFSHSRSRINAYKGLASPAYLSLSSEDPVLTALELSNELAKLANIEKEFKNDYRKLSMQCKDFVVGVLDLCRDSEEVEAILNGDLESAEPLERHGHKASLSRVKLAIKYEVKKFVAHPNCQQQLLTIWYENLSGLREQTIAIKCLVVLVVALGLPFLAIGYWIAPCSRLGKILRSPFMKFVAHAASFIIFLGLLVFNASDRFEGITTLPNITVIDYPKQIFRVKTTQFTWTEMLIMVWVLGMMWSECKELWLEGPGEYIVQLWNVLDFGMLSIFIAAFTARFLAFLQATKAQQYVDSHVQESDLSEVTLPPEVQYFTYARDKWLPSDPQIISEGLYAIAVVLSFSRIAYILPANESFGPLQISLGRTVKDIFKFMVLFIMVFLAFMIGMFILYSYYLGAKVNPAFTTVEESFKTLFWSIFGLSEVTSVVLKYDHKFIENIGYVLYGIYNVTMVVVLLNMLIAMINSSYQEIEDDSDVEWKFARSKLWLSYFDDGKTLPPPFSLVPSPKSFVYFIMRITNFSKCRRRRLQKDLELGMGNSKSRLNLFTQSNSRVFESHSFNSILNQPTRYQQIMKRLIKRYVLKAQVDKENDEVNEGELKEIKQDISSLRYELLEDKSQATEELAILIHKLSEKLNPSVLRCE", "assay": "Fluo-4 Ca2+ imaging of DHPG-activated Ca2+ entry, HEK293 cells co-expressing TRPC3b and mGluR1", "format": "cell-based", "settings": "genistein 200 μM pre-application, n=6, without genistein 1.56±0.0713", "protocol": "(§1) The TRPC3-mediated Ca^2+ entry through two distinct activation pathways was assessed by microfluorometric Ca^2+ imaging: i) Ca^2+ entry via the M3 receptor-PLCB-DAG pathway endogenous to HEK293 cells, using Indo-1 as a Ca^2+ indicator; and ii) Ca^2+ entry via mGluR1-PLCB-DAG through co-expression of the mGluR1, using Fluo-4 as a Ca^2+ indicator.\n(§2) Cells were grown in DMEM media on 18 mm circular coverslips coated with poly-D-lysine (25 μg/ml) and collagen (25 μg/ml) at 1:1 ratio. The cells were washed with HPSS. The coverslips were then incubated with HPSS and 0.1% pluronic acid, along with either 1 μM Indo-1AM or Fluo-4AM Ca^2+ indicator (Invitrogen, U.S.A.) for an hour prior to the experiment. […]\n(§3) For Fluo-4 experiments, the cells were mounted on an inverted microscope (DMIL, Leica) with a 20× 0.4NA objective (Leica HCX PL Fluotar), and illuminated with a mercury lamp using a GFP filter (part no. 11504164; excitation 470/40 nm, dichroic 500 nm, emission 525/50 nm) every 5 seconds (Andor iXon+ 885 EMCCD Camera, Ireland) with a gated shutter (Ludl Electronic Products, U.S.A.), controlled via Andor IQ (v1.8.1) software. The images were then analysed using Image J software (NIH, U.S.A.) with individual regions of interest (ROIs) identified for HEK293 cells responding to M3 or mGluR1 agonists with increased Ca^2+ signal. […]"}, "[2]": {"target": "T2, recombinant mouse TRPC3c channels (Mus musculus, UniProt Q9QZC1, DEL811-838)", "T2 construct": "expressed in transfected cells; host or cells: HEK293 cells, stably transfected (pIRES-DsRed2 vector)", "T2 sequence (Q9QZC1 with tags, fused parts or gaps DEL811-838)": "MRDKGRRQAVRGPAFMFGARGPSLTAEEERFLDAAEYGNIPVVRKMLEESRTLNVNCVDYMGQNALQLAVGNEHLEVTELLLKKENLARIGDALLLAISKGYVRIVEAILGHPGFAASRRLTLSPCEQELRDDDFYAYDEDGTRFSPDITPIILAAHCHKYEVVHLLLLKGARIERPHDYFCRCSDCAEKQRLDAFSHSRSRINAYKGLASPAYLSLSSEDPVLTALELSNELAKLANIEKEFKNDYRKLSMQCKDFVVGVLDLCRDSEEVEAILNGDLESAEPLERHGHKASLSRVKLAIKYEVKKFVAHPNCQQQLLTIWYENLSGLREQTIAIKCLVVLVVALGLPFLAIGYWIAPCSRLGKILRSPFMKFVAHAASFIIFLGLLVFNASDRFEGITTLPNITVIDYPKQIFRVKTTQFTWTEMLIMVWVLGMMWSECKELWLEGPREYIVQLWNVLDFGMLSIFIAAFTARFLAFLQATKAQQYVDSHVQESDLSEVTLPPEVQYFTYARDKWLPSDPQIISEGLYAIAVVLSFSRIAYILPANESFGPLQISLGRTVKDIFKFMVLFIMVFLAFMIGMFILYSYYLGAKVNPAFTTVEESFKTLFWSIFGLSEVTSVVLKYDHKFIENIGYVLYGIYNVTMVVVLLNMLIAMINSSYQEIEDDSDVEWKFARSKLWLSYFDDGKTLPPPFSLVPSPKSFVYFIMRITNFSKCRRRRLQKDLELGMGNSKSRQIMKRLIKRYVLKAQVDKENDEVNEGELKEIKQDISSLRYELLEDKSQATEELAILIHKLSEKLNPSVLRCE", "assay": "Fluo-4 Ca2+ imaging of DHPG-activated Ca2+ entry, HEK293 cells co-expressing TRPC3c and mGluR1", "format": "cell-based", "settings": "genistein 200 μM pre-application, n=6, without genistein 2.71±0.217", "protocol": "as §1, §2, §3"}}}
{"smiles": "O=c1c(-c2ccc(O)cc2)coc2cc(O)cc(O)c12", "note": "[genistein, 4′, 5,7-trihydroxyisoflavone]", "values": [{"measurement": "Fluo-4 fluorescence F/F0 (TRPC3-mediated Ca2+ entry after DHPG)", "setting": "[1]", "value": "1.031±0.0144"}, {"measurement": "Fluo-4 fluorescence F/F0 (TRPC3-mediated Ca2+ entry after DHPG)", "setting": "[2]", "value": "0.876±0.0621"}]}
